From patent publication US8822503B2, “2-pyridone compounds” (Taisho Pharmaceutical Co., Ltd, priority 2009, dated 2014)
pEC50: −log10 of the molar value.

Target: T1, human liver GK (Homo sapiens, UniProt P35557)
T1 construct: GST (glutathione S-transferase) (N); made in house; host or cells: E. coli
T1 sequence (P35557 1-466 isoform P35557-2): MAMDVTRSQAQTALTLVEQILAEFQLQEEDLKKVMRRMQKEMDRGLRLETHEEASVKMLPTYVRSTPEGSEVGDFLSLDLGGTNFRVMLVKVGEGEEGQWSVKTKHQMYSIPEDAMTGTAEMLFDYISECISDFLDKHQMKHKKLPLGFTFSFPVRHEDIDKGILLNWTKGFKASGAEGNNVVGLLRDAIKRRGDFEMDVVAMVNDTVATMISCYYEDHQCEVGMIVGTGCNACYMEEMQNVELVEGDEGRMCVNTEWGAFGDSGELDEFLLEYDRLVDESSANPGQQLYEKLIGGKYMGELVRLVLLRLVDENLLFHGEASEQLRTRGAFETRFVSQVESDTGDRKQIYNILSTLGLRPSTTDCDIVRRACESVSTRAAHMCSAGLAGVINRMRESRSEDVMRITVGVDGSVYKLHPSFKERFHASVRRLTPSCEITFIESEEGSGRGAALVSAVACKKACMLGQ
Assay: GK activation test
Assay type: biochemical
Conditions: test compound concentration needed to activate 50% of maximum activation ability; 4 mM 14C-labeled glucose, 2 mM ATP, room temperature, 20 minutes
How it was run: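 GST-tagged human liver GK from E. coli (0.24 μg/well) with 4 mM 14C-glucose, 2 mM ATP in Hepes-KOH pH 7.1, KCl, MgCl2, DTT, 1% DMSO, 20 min room temperature. Labeled glucose 6-phosphate captured on anion resin, eluted and counted. EC50 = concentration giving half of maximal activation.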

pEC50, 6.30 to 8.00:
CSc1ccc(/C(=C\C2CCCC2)c2ccc(C3CC3)c(=O)[nH]2)cc1 [Example 1-5, 6-{(E)-2-Cyclopentyl-1-[4-(methylsulfanyl)phenyl]ethenyl}-3-cyclopropylpyridin-2(1H)-one]
CS(=O)(=O)c1ccc(/C(=C\C2CCCC2)c2ccc(C3CC3)c(=O)[nH]2)cc1 [Example 1-6, 6-{(E)-2-Cyclopentyl-1-[4-(methylsulfonyl)phenyl]ethenyl}-3-cyclopropylpyridin-2(1H)-one]
CSc1ccc(/C(=C\C2CCCC2)c2ccc(C)c(=O)[nH]2)cc1 [Example 1-7, 6-{(E)-2-Cyclopentyl-1-[4-(methylsulfanyl)phenyl]ethenyl}-3-methylpyridin-2(1H)-one]
CCSc1ccc(/C(=C\C2CCCC2)c2ccc(C)c(=O)[nH]2)cc1 [Example 1-9, 6-{(E)-2-Cyclopentyl-1-[4-(ethylsulfanyl)phenyl]ethenyl}-3-methylpyridin-2(1H)-one]
CCS(=O)(=O)c1ccc(/C(=C\C2CCCC2)c2ccc(C)c(=O)[nH]2)cc1 [Example 1-10, 6-{(E)-2-Cyclopentyl-1-[4-(ethylsulfonyl)phenyl]ethenyl}-3-methylpyridin-2(1H)-one]
Cc1ccc(/C(=C/C2CCCC2)c2ccc(S(=O)(=O)C3CC3)cc2)[nH]c1=O [Example 1-11, 6-{(E)-2-Cyclopentyl-1-[4-(cyclopropylsulfonyl)phenyl]ethenyl}-3-methylpyridin-2(1H)-one]
CCc1ccc(/C(=C/C2CCCC2)c2ccc(SCCCO)cc2)[nH]c1=O [Example 1-12, 6-[(E)-2-Cyclopentyl-1-{4-[(3-hydroxypropyl)sulfanyl]phenyl}ethenyl]-3-ethylpyridin-2(1H)-one]
CCc1ccc(/C(=C/C2CCCC2)c2ccc(S(=O)(=O)CCCO)cc2)[nH]c1=O [Example 1-13, 6-[(E)-2-Cyclopentyl-1-{4-[(3-hydroxypropyl)sulfonyl]phenyl}ethenyl]-3-ethylpyridin-2(1H)-one]
Cc1ccc(/C(=C/C2CCCC2)c2ccc(S(=O)(=O)N(C)C)cc2)[nH]c1=O [Example 1-14, 4-[(E)-2-Cyclopentyl-1-(5-methyl-6-oxo-1,6-dihydropyridin-2-yl)ethenyl]-N,N-dimethylbenzenesulfonamide]
Cc1ccc(/C(=C/C2CCCC2)c2ccc(S(=O)(=O)N(C)CCO)cc2)[nH]c1=O [Example 1-15, 4-[(E)-2-Cyclopentyl-1-(5-methyl-6-oxo-1,6-dihydropyridin-2-yl)ethenyl]-N-(2-hydroxyethyl)-N-methylbenzenesulfonamide]
CCc1ccc(/C(=C/C2CCCC2)c2ccc(OC)c(Cl)c2)[nH]c1=O [Example 1-16, 6-[(E)-1-(3-Chloro-4-methoxyphenyl)-2-cyclopentylethenyl]-3-ethylpyridin-2(1H)-one]
CCOc1ccc(/C(=C\C2CCCC2)c2ccc(CC)c(=O)[nH]2)cc1Cl [Example 1-17, 6-[(E)-1-(3-Chloro-4-ethoxyphenyl)-2-cyclopentylethenyl]-3-ethylpyridin-2(1H)-one]
CSc1ccc(/C(=C\C2CCCC2)c2ccc(C)c(=O)[nH]2)cc1Cl [Example 1-18, 6-{(E)-1-[3-Chloro-4-(methylsulfanyl)phenyl]-2-cyclopentylethenyl}-3-methylpyridin-2(1H)-one]
Cc1ccc(/C(=C/C2CCCC2)c2ccc(S(C)(=O)=O)c(Cl)c2)[nH]c1=O [Example 1-19, 6-{(E)-1-[3-Chloro-4-(methylsulfonyl)phenyl]-2-cyclopentylethenyl}-3-methylpyridin-2(1H)-one]
CCc1ccc(/C(=C/C2CCCC2)c2ccc(SC)c(Cl)c2)[nH]c1=O [Example 1-20, 6-{(E)-1-[3-Chloro-4-(methylsulfanyl)phenyl]-2-cyclopentylethenyl}-3-ethylpyridin-2(1H)-one]
CCc1ccc(/C(=C/C2CCCC2)c2ccc(S(C)(=O)=O)c(Cl)c2)[nH]c1=O [Example 1-21, 6-{(E)-1-[3-Chloro-4-(methylsulfonyl)phenyl]-2-cyclopentylethenyl}-3-ethylpyridin-2(1H)-one]
Cc1ccc(/C(=C/C2CCCC2)c2ccc(SCCCO)c(Cl)c2)[nH]c1=O [Example 1-22, 6-[(E)-1-{3-Chloro-4-[(3-hydroxypropyl)sulfanyl]phenyl}-2-cyclopentylethenyl]-3-methylpyridin-2(1H)-one]
Cc1ccc(/C(=C/C2CCCC2)c2ccc(S(=O)(=O)CCCO)c(Cl)c2)[nH]c1=O [Example 1-23, 6-[(E)-1-{3-Chloro-4-[(3-hydroxypropyl)sulfonyl]phenyl}-2-cyclopentylethenyl]-3-methylpyridin-2(1H)-one]
CCN(CC)CCCSc1ccc(/C(=C\C2CCCC2)c2ccc(C)c(=O)[nH]2)cc1Cl [Example 1-24, 6-[(E)-1-(3-Chloro-4-{[3-(diethylamino)propyl]sulfanyl}phenyl)-2-cyclopentylethenyl]-3-methylpyridin-2(1H)-one]
CCc1ccc(/C(=C/C2CCCC2)c2ccc(SCCCN(CC)CC)c(Cl)c2)[nH]c1=O [Example 1-26, 6-[(E)-1-(3-Chloro-4-{[3-(diethylamino)propyl]sulfanyl}phenyl)-2-cyclopentylethenyl]-3-ethylpyridin-2(1H)-one]
CCc1ccc(/C(=C/C2CCCC2)c2ccc(S(=O)(=O)CCCN(CC)CC)c(Cl)c2)[nH]c1=O [Example 1-27, 6-[(E)-1-(3-Chloro-4-{[3-(diethylamino)propyl]sulfonyl}phenyl)-2-cyclopentylethenyl]-3-ethylpyridin-2(1H)-one]
O=c1[nH]c(/C(=C/C2CCCC2)c2ccc(SC3CC3)cc2)ccc1-c1ccccc1 [Example 1-29, 6-{(E)-2-Cyclopentyl-1-[4-(cyclopropylsulfanyl)phenyl]ethenyl}-3-phenylpyridin-2(1H)-one]
O=c1[nH]c(/C(=C/C2CCCC2)c2ccc(S(=O)(=O)C3CC3)cc2)ccc1CO [Example 1-30, 6-{(E)-2-Cyclopentyl-1-[4-(cyclopropylsulfonyl)phenyl]ethenyl}-3-(hydroxymethyl)pyridin-2(1H)-one]
Cc1ccc(/C(=C/CC2CCCC2)c2ccc(SC3CC3)cc2)[nH]c1=O [Example 1-36, 6-{(1E)-3-Cyclopentyl-1-[4-(cyclopropylsulfanyl)phenyl]prop-1-en-1-yl}-3-methylpyridin-2(1H)-one]
Cc1ccc(/C(=C/CC2CCCC2)c2ccc(S(=O)(=O)C3CC3)cc2)[nH]c1=O [Example 1-37, 6-{(1E)-3-Cyclopentyl-1-[4-(cyclopropylsulfonyl)phenyl]prop-1-en-1-yl}-3-methylpyridin-2(1H)-one]

pEC50, 5.52 to 6.30:
Cc1ccc(/C(=C/C2CCCC2)c2ccc(S(C)(=O)=O)cc2)[nH]c1=O [Example 1-8, 6-{(E)-2-Cyclopentyl-1-[4-(methylsulfonyl)phenyl]ethenyl}-3-methylpyridin-2(1H)-one]
CCN(CC)CCCS(=O)(=O)c1ccc(/C(=C\C2CCCC2)c2ccc(C)c(=O)[nH]2)cc1Cl [Example 1-25, 6-[(E)-1-(3-Chloro-4-{[3-(diethylamino)propyl]sulfonyl}phenyl)-2-cyclopentylethenyl]-3-methylpyridin-2(1H)-one]
CS(=O)(=O)c1ccc(/C(=C\C2CCCC2)c2ccc(C(F)(F)F)c(=O)[nH]2)cc1 [Example 1-28, 6-{(E)-2-Cyclopentyl-1-[4-(methylsulfonyl)phenyl]ethenyl}-3-(trifluoromethyl)pyridin-2(1H)-one]
CCN1CC(Sc2ccc(/C(=C\C3CCCC3)c3ccc(C)c(=O)[nH]3)cc2)C1 [Example 1-31, 6-[(E)-2-Cyclopentyl-1-{4-[(1-ethylazetidin-3-yl)sulfanyl]phenyl}ethenyl]-3-methylpyridin-2(1H)-one]
CCN1CC(S(=O)(=O)c2ccc(/C(=C\C3CCCC3)c3ccc(C)c(=O)[nH]3)cc2)C1 [Example 1-32, 6-[(E)-2-Cyclopentyl-1-{4-[(1-ethylazetidin-3-yl)sulfonyl]phenyl}ethenyl]-3-methylpyridin-2(1H)-one]
COC(=O)c1ccc(/C(=C\C2CCCC2)c2ccc(C)c(=O)[nH]2)cc1 [Example 1-33, Methyl 4-[(E)-2-cyclopentyl-1-(5-methyl-6-oxo-1,6-dihydropyridin-2-yl)ethenyl]benzoate]
CSc1ccc(/C(=C\C2CCCC2)c2ccc(C)c(=O)[nH]2)cn1 [Example 1-34, 6-{(E)-2-Cyclopentyl-1-[6-(methylsulfanyl)pyridin-3-yl]ethenyl}-3-methylpyridin-2(1H)-one]
Cc1ccc(/C(=C/C2CCCC2)c2ccc(S(C)(=O)=O)nc2)[nH]c1=O [Example 1-35, 6-{(E)-2-Cyclopentyl-1-[6-(methylsulfonyl)pyridin-3-yl]ethenyl}-3-methylpyridin-2(1H)-one]
O=c1[nH]c(/C(=C/C2CCCC2)c2ccc(CCCCO)cc2)ccc1C(F)(F)F [Example 1-38, 6-{(E)-2-Cyclopentyl-1-[4-(4-hydroxybutyl)phenyl]ethenyl}-3-(trifluoromethyl)pyridin-2(1H)-one]
